Target: T1, C-C chemokine receptor type 1 (Homo sapiens, UniProt P32246)
T1 sequence (P32246 whole entry): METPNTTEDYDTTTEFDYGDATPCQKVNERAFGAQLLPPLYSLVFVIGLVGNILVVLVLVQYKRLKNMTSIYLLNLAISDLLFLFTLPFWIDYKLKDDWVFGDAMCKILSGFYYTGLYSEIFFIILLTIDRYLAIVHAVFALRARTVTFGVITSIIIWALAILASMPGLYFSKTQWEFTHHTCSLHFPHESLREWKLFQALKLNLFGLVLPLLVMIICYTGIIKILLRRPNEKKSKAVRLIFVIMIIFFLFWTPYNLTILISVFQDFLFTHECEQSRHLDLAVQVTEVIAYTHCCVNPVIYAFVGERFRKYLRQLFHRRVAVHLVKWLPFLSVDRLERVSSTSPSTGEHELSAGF
Test: Compound was evaluated for the inhibition of RANTES-induced migration of human embryonic kidney (CCR1/HEK) cell transfectants; NA: not active; call rule not given here
Format: functional

| SMILES | IC50 |
| --- | --- |
| CC(C)CCCC(C)[C@H]1CC[C@H]2[C@@H]3CCC4C[C@@H](CCC=C(c5cc(Cl)c(OCc6ccc(C(=O)[O-])cc6)c(C(=O)[O-])c5)c5cc(Cl)c(OCc6ccc(C(=O)[O-])cc6)c(C(=O)[O-])c5)CC[C@]4(C)[C@H]3CC[C@]12C.[Na+].[Na+].[Na+].[Na+] (stereo partly specified) | Not Active |

Test system: not listed separately
Test: Compound was evaluated for the inhibition of RANTES-induced migration of human monocytes; NA: not active
Format: functional

| IC50 | SMILES |
| --- | --- |
| Not Active | CC(C)CCCC(C)[C@H]1CC[C@H]2[C@@H]3CCC4C[C@@H](CCC=C(c5cc(Cl)c(O)c(C(=O)N[C@@H](CC(=O)O)C(=O)O)c5)c5cc(Cl)c(O)c(C(=O)N[C@@H](CC(=O)O)C(=O)O)c5)CC[C@]4(C)[C@H]3CC[C@]12C (stereo partly specified) |
| Not Active | COc1c(COc2c(Cl)cc(C(=CCC[C@H]3CC[C@@]4(C)C(CC[C@H]5[C@@H]6CC[C@H](C(C)CCCC(C)C)[C@@]6(C)CC[C@@H]54)C3)c3cc(Cl)c(OCc4cccc(C(=O)O)c4OC)c(C(=O)[O-])c3)cc2C(=O)[O-])cccc1C(=O)O.[Na+].[Na+] (stereo partly specified) |
| Not Active | CC(C)CCCC(C)[C@H]1CC[C@H]2[C@@H]3CCC4C[C@@H](CCC=C(c5cc(Cl)c(OCc6ccccc6B([O-])O)c(C(=O)[O-])c5)c5cc(Cl)c(OCc6ccccc6B([O-])O)c(C(=O)[O-])c5)CC[C@]4(C)[C@H]3CC[C@]12C.[Na+].[Na+].[Na+].[Na+] (stereo partly specified) |
| Not Active | CC(C)CCCC(C)[C@H]1CC[C@H]2[C@@H]3CCC4C[C@@H](CCC=C(c5cc(Cl)c(O)c(C(=O)N[C@@H](Cc6ccccc6)C(=O)O)c5)c5cc(Cl)c(O)c(C(=O)N[C@@H](Cc6ccccc6)C(=O)O)c5)CC[C@]4(C)[C@H]3CC[C@]12C (stereo partly specified) |
| Not Active | CC(C)CCCC(C)[C@H]1CC[C@H]2[C@@H]3CCC4C[C@@H](CCC=C(c5cc(Cl)c(OCc6ccc(B([O-])O)cc6)c(C(=O)[O-])c5)c5cc(Cl)c(OCc6ccc(B([O-])O)cc6)c(C(=O)[O-])c5)CC[C@]4(C)[C@H]3CC[C@]12C.[Na+].[Na+].[Na+].[Na+] (stereo partly specified) |
| Not Active | CC(C)CCCC(C)[C@H]1CC[C@H]2[C@@H]3CCC4C[C@@H](CCC=C(c5cc(Cl)c(O)c(C(=O)N[C@@H](CCC(=O)O)C(=O)O)c5)c5cc(Cl)c(O)c(C(=O)N[C@@H](CCC(=O)O)C(=O)O)c5)CC[C@]4(C)[C@H]3CC[C@]12C (stereo partly specified) |

| SMILES | IC50 |
| --- | --- |
| CC(C)CCCC(C)[C@H]1CC[C@H]2[C@@H]3CCC4C[C@@H](CCC=C(c5cc(Cl)c(OCc6ccc(C(=O)O)cc6)c(C(=O)[O-])c5)c5cc(Cl)c(OCc6ccc(C(=O)O)cc6)c(C(=O)[O-])c5)CC[C@]4(C)[C@H]3CC[C@]12C.[Na+].[Na+] (stereo partly specified) | Not Active |
| CC(C)CCCC(C)[C@H]1CC[C@H]2[C@@H]3CCC4C[C@@H](CCC=C(c5cc(Cl)c(OCc6ccc(C(=O)[O-])cc6)c(C(=O)[O-])c5)c5cc(Cl)c(OCc6ccc(C(=O)[O-])cc6)c(C(=O)[O-])c5)CC[C@]4(C)[C@H]3CC[C@]12C.[Na+].[Na+].[Na+].[Na+] (stereo partly specified) | Not Active |

Test system: not listed separately
Test: Compound was evaluated for the inhibition of RANTES-induced migration of human monocytes
Format: functional

| SMILES | IC50 [µM] |
| --- | --- |
| CC(C)CCCC(C)[C@H]1CC[C@H]2[C@@H]3CCC4C[C@@H](CCC=C(c5cc(Cl)c(OCc6cccc(B(O)O)c6)c(C(=O)O)c5)c5cc(Cl)c(OCc6cccc(B(O)O)c6)c(C(=O)O)c5)CC[C@]4(C)[C@H]3CC[C@]12C (stereo partly specified) | 2.2 |
| CC(C)CCCC(C)[C@H]1CC[C@H]2[C@@H]3CCC4C[C@@H](CCC=C(c5cc(Cl)c(OCc6ccc(-c7cccc(C(=O)O)c7)cc6)c(C(=O)O)c5)c5cc(Cl)c(OCc6ccc(-c7cccc(C(=O)O)c7)cc6)c(C(=O)O)c5)CC[C@]4(C)[C@H]3CC[C@]12C (stereo partly specified) | 3 |
| CSCC[C@H](NC(=O)c1cc(C(=CCC[C@H]2CC[C@@]3(C)C(CC[C@H]4[C@@H]5CC[C@H](C(C)CCCC(C)C)[C@@]5(C)CC[C@@H]43)C2)c2cc(Cl)c(O)c(C(=O)N[C@@H](CCSC)C(=O)O)c2)cc(Cl)c1O)C(=O)O (stereo partly specified) | 0.82 |
| CC(C)CCCC(C)[C@H]1CC[C@H]2[C@@H]3CCC4C[C@@H](CCC=C(c5cc(Cl)c(OCc6cccc(C(=O)O)c6)c(C(=O)O)c5)c5cc(Cl)c(OCc6cccc(C(=O)O)c6)c(C(=O)O)c5)CC[C@]4(C)[C@H]3CC[C@]12C (stereo partly specified) | 10 |
| CC(C)CCCC(C)[C@H]1CC[C@H]2[C@@H]3CCC4C[C@@H](CCC=C(c5cc(Cl)c(OCc6ccccc6C(=O)O)c(C(=O)O)c5)c5cc(Cl)c(OCc6ccccc6C(=O)O)c(C(=O)O)c5)CC[C@]4(C)[C@H]3CC[C@]12C (stereo partly specified) | 3.9 |
| CC(C)CCCC(C)[C@H]1CC[C@H]2[C@@H]3CCC4C[C@@H](CCC=C(c5cc(Cl)c(O)c(C(=O)O)c5)c5cc(Cl)c(O)c(C(=O)O)c5)CC[C@]4(C)[C@H]3CC[C@]12C (stereo partly specified) | 0.76 |
| CC(C)CCCC(C)[C@H]1CC[C@H]2[C@@H]3CCC4C[C@@H](CCC=C(c5cc(Cl)c(OCc6cccc([N+](=O)[O-])c6)c(C(=O)O)c5)c5cc(Cl)c(OCc6cccc([N+](=O)[O-])c6)c(C(=O)O)c5)CC[C@]4(C)[C@H]3CC[C@]12C (stereo partly specified) | 3.5 |

Source: ChEMBL document CHEMBL1134764, “Inhibition of RANTES/CCR1-mediated chemotaxis by cosalane and related compounds” (Bioorg Med Chem Lett, 2001)
